# From US20200172966A1 (YAMAGUCHI UNIVERSITY, priority 2015, published 2020)
# Assay: incidence of side effect (hematologic toxicity) by single nucleotide polymorphism genotype in Japanese patients with colon cancer who had received irinotecan
# Type: in vivo, human
# Method: By using TaqMan SNP Assays Human (manufactured by Applied Biosystems, Inc.) and LightCycler (R) 480 Probe Master (manufactured by Roche Diagnostics, Inc.), Universal ProbeLibrary (manufactured by Roche Diagnostics, Inc.), and LightCycler 480 System II (manufactured by Roche Diagnostics, Inc.), 10 ng of genomic DNA was subjected to genotyping. After incubation at 95° C. for 10 min, the sample was subjected to PCR amplification with 55 cycles for rs1980576, rs2272761, and rs9425343, 45 cycles for rs12577167, rs7265854, and rs1135640, or 40 cycles for rs1547 (1 cycle consisted of 92° C. for 15 sec and 60° C. for 60 sec). The fluorescence emitted from the PCR products were measured.
# The “Odds ratio” in Table 3 refers to an odds ratio indicating the occurrence of a side effect as calculated using a Fisher's exact test on a single nucleotide polymorphism being homozygous for a wild-type or homozygous for a variant type.
# The term (P value/C.-A.) in Table 4 is the same as in Table 2. […] The term “Odds ratio” in Table 5 is the same as in Table 3.
# [1] = N = 72, homozygous UGT1A1*28 excluded (Table 5), ACOX1 rs1135640 G/G
# [2] = N = 72, homozygous UGT1A1*28 excluded, ACOX1 rs1135640 C/C, C/G
# [3] = N = 72, homozygous UGT1A1*28 excluded, APCDD1L rs1980576 A/A
# [4] = N = 72, homozygous UGT1A1*28 excluded, APCDD1L rs1980576 A/A, A/G
# [5] = N = 72, homozygous UGT1A1*28 excluded, APCDD1L rs1980576 A/G, G/G
# [6] = N = 72, homozygous UGT1A1*28 excluded, APCDD1L rs1980576 G/G
# [7] = N = 72, homozygous UGT1A1*28 excluded, APCDD1L rs7265854 C/C
# [8] = N = 72, homozygous UGT1A1*28 excluded, APCDD1L rs7265854 T/T, T/C
# [9] = N = 72, homozygous UGT1A1*28 excluded, EDEM3 rs9425343 T/G, G/G
# [10] = N = 72, homozygous UGT1A1*28 excluded, EDEM3 rs9425343 T/T
# [11] = N = 72, homozygous UGT1A1*28 excluded, R3HCC1 rs2272761 G/A, A/A
# [12] = N = 72, homozygous UGT1A1*28 excluded, R3HCC1 rs2272761 G/G
# [13] = N = 72, homozygous UGT1A1*28 with reduced amount of irinotecan excluded (Table 4), ACOX1 rs1135640 C/C
# [14] = N = 72, homozygous UGT1A1*28 with reduced amount of irinotecan excluded (Table 4), ACOX1 rs1135640 C/G
# [15] = N = 72, homozygous UGT1A1*28 with reduced amount of irinotecan excluded (Table 4), ACOX1 rs1135640 G/G
# [16] = N = 73, homozygous UGT1A1*28 with reduced amount of irinotecan excluded, APCDD1L rs1980576 A/A
# [17] = N = 73, homozygous UGT1A1*28 with reduced amount of irinotecan excluded, APCDD1L rs1980576 A/G
# [18] = N = 73, homozygous UGT1A1*28 with reduced amount of irinotecan excluded, APCDD1L rs1980576 G/G
# [19] = N = 73, homozygous UGT1A1*28 with reduced amount of irinotecan excluded, APCDD1L rs7265854 A/A
# [20] = N = 73, homozygous UGT1A1*28 with reduced amount of irinotecan excluded, APCDD1L rs7265854 A/G
# [21] = N = 73, homozygous UGT1A1*28 with reduced amount of irinotecan excluded, APCDD1L rs7265854 G/G
# [22] = N = 73, homozygous UGT1A1*28 with reduced amount of irinotecan excluded, CSMD2 rs474474 A/A
# [23] = N = 73, homozygous UGT1A1*28 with reduced amount of irinotecan excluded, CSMD2 rs474474 A/G
# [24] = N = 73, homozygous UGT1A1*28 with reduced amount of irinotecan excluded, CSMD2 rs474474 G/G
# [25] = N = 73, homozygous UGT1A1*28 with reduced amount of irinotecan excluded, EDEM3 rs9425343 G/G
# [26] = N = 73, homozygous UGT1A1*28 with reduced amount of irinotecan excluded, EDEM3 rs9425343 T/G
# [27] = N = 73, homozygous UGT1A1*28 with reduced amount of irinotecan excluded, EDEM3 rs9425343 T/T
# [28] = N = 73, homozygous UGT1A1*28 with reduced amount of irinotecan excluded, GATA2 rs2335052 A/A
# [29] = N = 73, homozygous UGT1A1*28 with reduced amount of irinotecan excluded, GATA2 rs2335052 G/A
# [30] = N = 73, homozygous UGT1A1*28 with reduced amount of irinotecan excluded, GATA2 rs2335052 G/G
# [31] = N = 73, homozygous UGT1A1*28 with reduced amount of irinotecan excluded, MKKS rs1547 C/C
# [32] = N = 73, homozygous UGT1A1*28 with reduced amount of irinotecan excluded, MKKS rs1547 C/T
# [33] = N = 73, homozygous UGT1A1*28 with reduced amount of irinotecan excluded, MKKS rs1547 T/T
# [34] = N = 73, homozygous UGT1A1*28 with reduced amount of irinotecan excluded, OR51I2 rs12577167 A/A
# [35] = N = 73, homozygous UGT1A1*28 with reduced amount of irinotecan excluded, OR51I2 rs12577167 A/G
# [36] = N = 73, homozygous UGT1A1*28 with reduced amount of irinotecan excluded, OR51I2 rs12577167 G/G
# [37] = N = 73, homozygous UGT1A1*28 with reduced amount of irinotecan excluded, R3HCC1 rs2272761 A/A
# [38] = N = 73, homozygous UGT1A1*28 with reduced amount of irinotecan excluded, R3HCC1 rs2272761 G/A
# [39] = N = 73, homozygous UGT1A1*28 with reduced amount of irinotecan excluded, R3HCC1 rs2272761 G/G
compound,measurement,setting,value
"CCc1c2c(nc3ccc(OC(=O)N4CCC(N5CCCCC5)CC4)cc13)-c1cc3c(c(=O)n1C2)COC(=O)[C@]3(O)CC [irinotecan, 1,4′-Bipiperidine-1′-carboxylic acid (S)-4,11-diethyl-3,4,12,14-tetrahydro-4-hydroxy-3,14-dioxo-1H-pyrano[3′,4′:6,7]indolizino[1,2-b]quinolin-9-yl ester]",Toxicity No,[1],21
same,Toxicity Yes,[1],8
same,Toxicity No,[2],17
same,Toxicity Yes,[2],26
same,Toxicity No,[3],16
same,Toxicity Yes,[3],6
same,Toxicity No,[4],35
same,Toxicity Yes,[4],26
same,Toxicity No,[5],22
same,Toxicity Yes,[5],28
same,Toxicity No,[6],3
same,Toxicity Yes,[6],8
same,Toxicity No,[7],8
same,Toxicity Yes,[7],1
same,Toxicity No,[8],30
same,Toxicity Yes,[8],33
same,Toxicity No,[9],31
same,Toxicity Yes,[9],21
same,Toxicity No,[10],7
same,Toxicity Yes,[10],13
same,Toxicity No,[11],32
same,Toxicity Yes,[11],34
same,Toxicity No,[12],6
same,Toxicity Yes,[12],0
same,Toxicity No,[13],3
same,Toxicity Yes,[13],8
same,Toxicity No,[14],14
same,Toxicity Yes,[14],18
same,Toxicity No,[15],21
same,Toxicity Yes,[15],8
same,Toxicity No,[16],16
same,Toxicity Yes,[16],6
same,Toxicity No,[17],20
same,Toxicity Yes,[17],20
same,Toxicity No,[18],3
same,Toxicity Yes,[18],8
same,Toxicity No,[19],13
same,Toxicity Yes,[19],18
same,Toxicity No,[20],18
same,Toxicity Yes,[20],15
same,Toxicity No,[21],8
same,Toxicity Yes,[21],1
same,Toxicity No,[22],16
same,Toxicity Yes,[22],22
same,Toxicity No,[23],18
same,Toxicity Yes,[23],8
same,Toxicity No,[24],5
same,Toxicity Yes,[24],4
same,Toxicity No,[25],10
same,Toxicity Yes,[25],5
same,Toxicity No,[26],21
same,Toxicity Yes,[26],16
same,Toxicity No,[27],8
same,Toxicity Yes,[27],13
same,Toxicity No,[28],5
same,Toxicity Yes,[28],5
same,Toxicity No,[29],20
same,Toxicity Yes,[29],12
same,Toxicity No,[30],14
same,Toxicity Yes,[30],17
same,Toxicity No,[31],20
same,Toxicity Yes,[31],10
same,Toxicity No,[32],16
same,Toxicity Yes,[32],19
same,Toxicity No,[33],3
same,Toxicity Yes,[33],5
same,Toxicity No,[34],19
same,Toxicity Yes,[34],23
same,Toxicity No,[35],14
same,Toxicity Yes,[35],10
same,Toxicity No,[36],6
same,Toxicity Yes,[36],1
same,Toxicity No,[37],22
same,Toxicity Yes,[37],24
same,Toxicity No,[38],11
same,Toxicity Yes,[38],10
same,Toxicity No,[39],6
same,Toxicity Yes,[39],0
same,irinotecan side effect observed,of 68 cases considered to have a low risk of a side effect in view of the UGT1A gene polymorphisms,29 cases
